Toxic doses and inconclusive results are not listed.
Tested on: BDF1 mice, B16 melanoma ip, median survival T/C
Test: NCI In Vivo Anticancer Drug Screen. Data for tumor model B16 Melanoma (intraperitoneal) in B6D2F1 (BDF1) mice
Conditions: endpoint: median survival time, higher = longer survival
Summary of the method: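 Mice with transplantable tumors; drug vs vehicle groups; endpoint survival or tumor size; value = T/C.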

[1] = dose: 1.5 mg/kg/injection, schedule: Q01DX009 (ip), vehicle: saline with Tween-80
[2] = dose: 12.5 mg/kg/injection, schedule: Q01DX009 (ip), vehicle: saline with Tween-80
[3] = dose: 25.0 mg/kg/injection, schedule: Q01DX009 (ip), vehicle: saline with Tween-80
[4] = dose: 100.0 mg/kg/injection, schedule: Q01DX009 (ip), vehicle: Klucel (hydroxypropylcellulose) (HPC)
[5] = dose: 200.0 mg/kg/injection, schedule: Q01DX009 (ip), vehicle: Klucel (hydroxypropylcellulose) (HPC)
[6] = dose: 400.0 mg/kg/injection, schedule: Q01DX009 (ip), vehicle: Klucel (hydroxypropylcellulose) (HPC)
[7] = dose: 6.25 mg/kg/injection, schedule: Q01DX009 (ip), vehicle: saline with Tween-80
[8] = dose: 50.0 mg/kg/injection, schedule: Q01DX009 (ip), vehicle: Klucel (hydroxypropylcellulose) (HPC)
[9] = dose: 25.0 mg/kg/injection, schedule: Q01DX009 (ip), vehicle: Klucel (hydroxypropylcellulose) (HPC)
[10] = dose: 50.0 mg/kg/injection, schedule: Q01DX009 (ip), vehicle: saline with Tween-80
[11] = dose: 100.0 mg/kg/injection, schedule: Q01DX009 (ip), vehicle: saline with Tween-80
[12] = dose: 12.5 mg/kg/injection, schedule: Q01DX009 (ip), vehicle: saline
[13] = dose: 25.0 mg/kg/injection, schedule: Q01DX009 (ip), vehicle: saline
[14] = dose: 50.0 mg/kg/injection, schedule: Q01DX009 (ip), vehicle: saline
[15] = dose: 12.5 mg/kg/injection, schedule: Q01DX009 (ip), vehicle: Klucel (hydroxypropylcellulose) (HPC)

With `CC(=O)Oc1ccc(/C=N/NC(N)=S)nc1` the T/C (dose: 9.4 mg/kg/injection, schedule: Q01DX009 (ip), vehicle: saline with Tween-80) was 96 % of control, the T/C (dose: 18.8 mg/kg/injection, schedule: Q01DX009 (ip), vehicle: saline with Tween-80) was 106 % of control and the T/C (dose: 37.5 mg/kg/injection, schedule: Q01DX009 (ip), vehicle: saline with Tween-80) was 108 % of control. The T/C (dose: 75.0 mg/kg/injection, schedule: Q01DX009 (ip), vehicle: saline with Tween-80) was 112 % of control and the T/C (dose: 150.0 mg/kg/injection, schedule: Q01DX009 (ip), vehicle: saline with Tween-80) was 108 % of control.

With `CN=S(=O)(OCCCCCOS(=O)(=NC)c1ccccc1)c1ccccc1` (centres undefined) the T/C [1] was 111 % of control, the T/C (dose: 3.0 mg/kg/injection, schedule: Q01DX009 (ip), vehicle: saline with Tween-80) was 104 % of control and the T/C (dose: 6.0 mg/kg/injection, schedule: Q01DX009 (ip), vehicle: saline with Tween-80) was 122 % of control. The T/C [2] was 94 % of control, the T/C (dose: 24.0 mg/kg/injection, schedule: Q01DX009 (ip), vehicle: saline with Tween-80) was 169 % of control and the T/C [3] was 122 % of control.

In the case of `CN(Cc1cnc2nc(N)nc(N)c2n1)c1c(Cl)cc(C(=O)NC(CCC(=O)O)C(=O)O)cc1Br` (centres undefined), the T/C (dose: 25.0 mg/kg/injection, schedule: Q01DX011 (ip), vehicle: saline) is reported as 101 % of control and the T/C (dose: 50.0 mg/kg/injection, schedule: Q01DX011 (ip), vehicle: saline) is reported as 105 % of control.

In the case of `CN1CCN(Cc2c(O)ccc3c4c(c(=O)oc23)CCCC4)CC1`, the T/C (dose: 32.0 mg/kg/injection, schedule: Q01DX009 (ip), vehicle: Klucel (hydroxypropylcellulose) (HPC)) is reported as 105 % of control, the T/C (dose: 64.0 mg/kg/injection, schedule: Q01DX009 (ip), vehicle: Klucel (hydroxypropylcellulose) (HPC)) is reported as 100 % of control and the T/C (dose: 128.0 mg/kg/injection, schedule: Q01DX009 (ip), vehicle: Klucel (hydroxypropylcellulose) (HPC)) is reported as 100 % of control.

In the case of `Cc1ccc2c(c1)C(=O)c1ccccc1S2(=O)=O`, the T/C [4] is reported as 104 % of control, the T/C [5] is reported as 98 % of control and the T/C [6] is reported as 93 % of control.

In the case of `CCC(=O)c1ccc2c(c1)N(CCCN(C)C)c1ccccc1S2`, the T/C (dose: 3.12 mg/kg/injection, schedule: Q01DX009 (ip), vehicle: saline with Tween-80) is reported as 96 % of control, the T/C [7] is reported as 86 % of control and the T/C [2] is reported as 96 % of control.

For `Nc1nc(=S)c2[nH]c(N=Nc3ccc(S(=O)(=O)O)cc3)nc2[nH]1`, the T/C (dose: 6.25 mg/kg/injection, schedule: Q04DX003 (ip), vehicle: saline) was 107 % of control and the T/C (dose: 12.5 mg/kg/injection, schedule: Q04DX003 (ip), vehicle: saline) was 109 % of control.

For `CC(=O)C1=C(O)C2C3c4c[nH]c5cccc(c45)CC3C(C)(C)N2C1=O` (centres undefined), the T/C (dose: 0.13 mg/kg/injection, schedule: Q01DX009 (ip), vehicle: saline) was 102 % of control, the T/C (dose: 0.25 mg/kg/injection, schedule: Q01DX009 (ip), vehicle: saline) was 106 % of control and the T/C (dose: 0.5 mg/kg/injection, schedule: Q01DX009 (ip), vehicle: saline) was 106 % of control. For the same compound, the T/C (dose: 1.0 mg/kg/injection, schedule: Q01DX009 (ip), vehicle: saline) was 106 % of control, the T/C (dose: 2.0 mg/kg/injection, schedule: Q01DX009 (ip), vehicle: saline) was 102 % of control and the T/C (dose: 4.0 mg/kg/injection, schedule: Q01DX009 (ip), vehicle: saline) was 107 % of control. The T/C (dose: 8.0 mg/kg/injection, schedule: Q01DX009 (ip), vehicle: saline) was 111 % of control.

`CCOC(=O)/C=C/c1c[nH]c(C(=O)OCC)c1` was tested, and the T/C [8] was 102 % of control, the T/C [4] was 96 % of control and the T/C [5] was 99 % of control. The T/C [6] was 98 % of control.

With `Cc1cc[n+](C)c2ccccc12` the T/C (dose: 9.37 mg/kg/injection, schedule: Q01DX009 (ip), vehicle: saline) was 95 % of control, the T/C (dose: 18.75 mg/kg/injection, schedule: Q01DX009 (ip), vehicle: saline) was 92 % of control and the T/C (dose: 37.5 mg/kg/injection, schedule: Q01DX009 (ip), vehicle: saline) was 97 % of control.

For `NNC(=O)c1nc(N)n[nH]1`, the T/C (dose: 100.0 mg/kg/injection, schedule: Q04DX003 (ip), vehicle: saline) was 103 % of control, the T/C (dose: 200.0 mg/kg/injection, schedule: Q04DX003 (ip), vehicle: saline) was 104 % of control and the T/C (dose: 400.0 mg/kg/injection, schedule: Q04DX003 (ip), vehicle: saline) was 103 % of control.

`Cc1ccc(Cl)cc1NC(=O)Nc1ccccc1Cl` was tested, and the T/C (dose: 0.78 mg/kg/injection, schedule: Q01DX009 (ip), vehicle: saline with Tween-80) was 88 % of control, the T/C (dose: 1.56 mg/kg/injection, schedule: Q01DX009 (ip), vehicle: saline with Tween-80) was 90 % of control and the T/C (dose: 3.13 mg/kg/injection, schedule: Q01DX009 (ip), vehicle: saline with Tween-80) was 93 % of control. For the same compound, the T/C [7] was 90 % of control and the T/C [9] was 89 % of control.

`Nc1ncn(C2OC(CO)C(O)C2O)c(=O)n1` (centres undefined) was tested, and the T/C (dose: 0.25 mg/kg/injection, schedule: Q01DX009 (ip), vehicle: suspension in saline) was 90 % of control, the T/C (dose: 0.5 mg/kg/injection, schedule: Q01DX009 (ip), vehicle: suspension in saline) was 112 % of control and the T/C (dose: 0.75 mg/kg/injection, schedule: Q01DX009 (ip), vehicle: saline with Tween-80) was 118 % of control. The T/C (dose: 1.0 mg/kg/injection, schedule: Q01DX009 (ip), vehicle: suspension in saline) was 91 % of control, the T/C [1] was 124 % of control and the T/C (dose: 2.0 mg/kg/injection, schedule: Q01DX009 (ip), vehicle: suspension in saline) was 92 % of control.

For `C/C=C/CNc1ccccc1`, the T/C [10] was 101 % of control and the T/C [11] was 94 % of control.

With `CCOC(=O)C(C)C(=O)O` (centres undefined) the T/C [12] was 116 % of control, the T/C [13] was 101 % of control and the T/C [10] was 99 % of control. For the same compound, the T/C [14] was 98 % of control.

With `O=[N+]([O-])c1cc(C(F)(F)F)ccc1F` the T/C [15] was 101 % of control, the T/C [9] was 109 % of control and the T/C [8] was 109 % of control. For the same compound, the T/C [4] was 108 % of control.

For `Nc1nc(=S)c2n[nH]nc2[nH]1`, the T/C [2] was 96 % of control, the T/C [3] was 108 % of control and the T/C [10] was 113 % of control. The T/C [11] was 88 % of control.

`C=C1C(=O)OC2CC1C(OC(=O)/C=C/c1ccccc1)C/C(C)=C/CC/C(C)=C/CCC2(C)O` (centres undefined) was tested, and the T/C [15] was 105 % of control, the T/C [9] was 92 % of control and the T/C [8] was 101 % of control.

For `CNCC(C)CN1CCCCCc2ccccc21` (centres undefined), the T/C (dose: 3.12 mg/kg/injection, schedule: Q01DX009 (ip), vehicle: saline) was 102 % of control, the T/C (dose: 6.25 mg/kg/injection, schedule: Q01DX009 (ip), vehicle: saline) was 100 % of control and the T/C [12] was 95 % of control. The T/C [13] was 100 % of control and the T/C [14] was 113 % of control.

`CCCCCCCCCCCC1=C(O)C(=O)C=C(O)C1=O` was tested, and the T/C [7] was 102 % of control, the T/C [2] was 96 % of control and the T/C [3] was 86 % of control.

In the case of `C=Cc1c2[n-]c(c1C)/C=c1\[n-]/c(c(C)c1C=C)=C\c1[n-]c(c(CCC(=O)O)c1C)/C=c1\[n-]/c(c(C)c1CCC(=O)O)=C\2.[Co]`, the T/C [9] is reported as 95 % of control, the T/C [8] is reported as 94 % of control and the T/C [4] is reported as 92 % of control. For the same compound, the T/C [5] was 87 % of control, the T/C (dose: 1:1.0 dilution, schedule: Q01DX009 (ip), vehicle: saline) was 90 % of control and the T/C (dose: 1:2.0 dilution, schedule: Q01DX009 (ip), vehicle: saline) was 99 % of control. The T/C (dose: 1:4.0 dilution, schedule: Q01DX009 (ip), vehicle: saline) was 105 % of control and the T/C (dose: 1:8.0 dilution, schedule: Q01DX009 (ip), vehicle: saline) was 112 % of control.

In the case of `O=P(O)(O)OCCCl`, the T/C (dose: 100.0 mg/kg/injection, schedule: Q04DX003 (ip), vehicle: Klucel (hydroxypropylcellulose) (HPC)) is reported as 100 % of control, the T/C (dose: 200.0 mg/kg/injection, schedule: Q04DX003 (ip), vehicle: Klucel (hydroxypropylcellulose) (HPC)) is reported as 94 % of control and the T/C (dose: 400.0 mg/kg/injection, schedule: Q04DX003 (ip), vehicle: Klucel (hydroxypropylcellulose) (HPC)) is reported as 103 % of control.

For `Cc1ccc(C)c(NC(=O)Nc2cccc3ccccc23)c1`, the T/C (dose: 9.0 mg/kg/injection, schedule: Q01DX009 (ip), vehicle: gum acacia) was 108 % of control, the T/C (dose: 18.0 mg/kg/injection, schedule: Q01DX009 (ip), vehicle: gum acacia) was 98 % of control and the T/C (dose: 37.0 mg/kg/injection, schedule: Q01DX009 (ip), vehicle: gum acacia) was 91 % of control.

`CC(NC(=O)CN(C)C(=O)OCc1ccccc1)C(=O)O` (centres undefined) was tested, and the T/C [10] was 99 % of control, the T/C [11] was 98 % of control and the T/C (dose: 200.0 mg/kg/injection, schedule: Q01DX009 (ip), vehicle: saline with Tween-80) was 97 % of control.
